# Source: patent US10851089B2, “Matrix metalloproteinase (MMP) inhibitors and methods of use thereof” (Foresee Pharmaceuticals Co., Ltd., priority 2018, dated 2020)
# What was measured:
# recombinant human MMP-7 = recombinant human MMP-7 (Homo sapiens (Human), UniProt P09237); assay: MMP selectivity assay MMP-7; type: biochemical
# Procedure: (§1) The inhibitory effect of compounds on the rate of cleaving fluorogenic MMP substrate (Enzo, BML-P128) by recombinant human MMP-12 catalytic domain (Enzo, BML-SE138) was carried out by methods known in the art. Briefly, to each well of a 96-well black opaque plate, all the reagents were sequentially added by pipetting, and the final reaction contained 4 nM of recombinant human MMP-12 catalytic domain, 4 μM of fluorogenic MMP substrate, and various concentrations (0.15 nM to 10,000 nM) of tested compound dilutions in HEPES buffer (pH 7.5) containing 10 mM of CaCl2, 0.01% Brij® 35 (polyoxyethylene (23) lauryl ether), and 0.1 mg/ml of BSA.
# (§2) The enzyme and compounds were pre-incubated on a shaker to mix in wells. After an hour of mixing, fluorogenic substrate was added to each well. Reaction without enzyme was used as a blank control in the plate. The plate was then fed into a plate reader to measure fluorescence intensity at Excitation/Emission wavelengths of 340 nm/440 nm every 10 mins for at least 1 hour at 37° C. The IC50 of each compound in MMP-12 inhibition was determined by using a readout obtained at time point 30 minutes.
# (§3) The MMP selectivity assay was performed by using other recombinant human MMPs, including MMP-1, MMP-2, MMP-3, MMP-7, MMP-8, MMP-9, MMP-10, MMP-13, and MMP-14. The IC50 of the compounds for the other recombinant human MMPs was determined as described above in Example 1, and are shown in Table 2.
# [1] = tested on: bleomycin-induced unilateral lung fibrosis; assay: Bleomycin-induced SD rat unilateral lung fibrosis model (IPF); type: in vivo; design: Left lung bronchial and arteriole damage score, fibrosis core / Left lung bronchial and arteriole damage score, fibrosis border: scale not given here; Fibrosis score 1-3 (ratio of left lung fibrosis score) / Fibrosis score 4-8 (ratio of left lung fibrosis score) / Left lung fibrosis area: unit not given here; conditions: for Left lung bronchial and arteriole damage score, fibrosis border / Left lung bronchial and arteriole damage score, fibrosis core: 14 days; for Left lung bronchial and arteriole damage score, fibrosis border: model 6.56 ± 0.51; for Left lung bronchial and arteriole damage score, fibrosis core: model 8.34 ± 0.24; for Left lung fibrosis score (Ashcraft): model 3.7 ± 0.1; for Fibrosis score 1-3 (ratio of left lung fibrosis score): model 44.0 ± 3.1; for Fibrosis score 4-8 (ratio of left lung fibrosis score): model 56.0 ± 3.1; for Left lung fibrosis area: model 69.1 ± 3.3
# Procedure: The purpose of this study was to evaluate the therapeutic effect of FC-4 on bleomycin (BLM) induced unilateral lung fibrosis model in Sprague Dawley (SD) rats. Male SD rats (n=50) were randomly divided into the following groups: Sham group (n=10), Model group (n=10), FC-4 administered at 10 mg/kg/day group (n=10), FC-4 administered at 30 mg/kg/day group (n=10), and FC-4 administered at 100 mg/kg/day group (n=10). All test drugs were delivered orally starting from day 8 of modeling for 14 days. Saline solution was taken for sham and model groups once a day, and FC-4 twice a day for drug treatment groups. Rats were anesthetized and the trachea was exposed. Saline was administrated via direct intra-trachea injection in the sham group, and the other groups' animals received a BLM injection at a dose of 3 mg/kg in volume of 1.0 ml/kg. All animals were processed using a non invasive lung function test with EMMS Whole Body Plethysmography system at pre-modeling, and at days 3, 7, 11, 14, 18 and 21 of modeling. One day after the last drug delivery, the left lung of all animals was perfused with 10% formalin, and processed for pathology analysis.
# Animals: Species and quality level: SD rats, SPF grade. Gender and number: male, 93. Purchasing body weight range: 260-280 g. Company Certificate No.: SCXX (Jing) 2012-001, Beijing Vital River Laboratory Animal Technology Co., Ltd. Animal Housing: Rats were housed in the Animal House Facility of the Nanjing BioSciKin Co. Ltd. under international standards for temperature, humidity and light control system. The animal use protocol was reviewed and approved by the Institutional Animal Care and Use Committee (IACUC) of KCI Biotech Inc. All experimental procedures were conducted in conformity with institutional guidelines of KCI Biotech Inc.
# Model Establishment: This study was carried out in strict accordance with the SOP institutional guidelines for the care and use of laboratory animals. Rats were anesthetized by intraperitoneal injection of pentobarbital sodium at dose of 50 mg/kg. Then rat neck skin was disinfected and opened in layers. The trachea was exposed carefully. Bleomycin (BLM) was directly injected into the left main bronchus at a dose of 3 mg/kg body weight in volume of 1.0 ml/kg via a cannula. After closing the trachea and skin in layers the animal was moved on an electric heat pad at 37° C. to await waking up from the anesthesia before returning to holding cages with free access to water and diet.
# Experiment Grouping: Rats were assigned into 5groups: Sham (Group-1, n=10), Model (Group-2, n=10), FC-4-Low dose (Group-3, 10 mg/kg/day, n=10), FC-4-Middle dose (Group-4, 30 mg/kg/day, n=10), FC-4-High dose (Group-5, 100 mg/kg/day, n=10) (Table 1).
# Drug Administration: Test article FC-4 were designed as an oral administration via a gastric perfusion. FC-4 was delivered twice a day starting from day-8 of modeling for 14 days. (Table 3.1).
# Endpoint: a) Non invasive lung function test: All animals were given a non-invasive lung function examination with EMMS Whole Body Plethysmography (WBP) system at multiple time points during the study periods, including at pre-IPF modeling, day-3 of IPF, day-7 of IPF before dosing, day-11 of IPF, day-14 of IPF, day-18 of IPF and day-21 of IPF before sacrificing the animals, focusing on the parameters of tidal volume (TV), breath rate, inspiratory volume per minute (MV) and Penh. index. b) Left lung collection for pathology analysis: After the last examination of lung function, all animals were euthanized according to the standard SOP at KCI. After confirming the animal death, each animal received a systemic perfusion with 10% formaldehyde solution, then the left lung was harvested and perfused again with an equal volume of 10% formaldehyde solution (3 ml for each lung). […]
# recombinant human MMP-1 = recombinant human MMP-1 (Homo sapiens (Human), UniProt P03956); assay: MMP selectivity assay MMP-1; type: biochemical
# Sequence of recombinant human MMP-1 (P03956 100-469): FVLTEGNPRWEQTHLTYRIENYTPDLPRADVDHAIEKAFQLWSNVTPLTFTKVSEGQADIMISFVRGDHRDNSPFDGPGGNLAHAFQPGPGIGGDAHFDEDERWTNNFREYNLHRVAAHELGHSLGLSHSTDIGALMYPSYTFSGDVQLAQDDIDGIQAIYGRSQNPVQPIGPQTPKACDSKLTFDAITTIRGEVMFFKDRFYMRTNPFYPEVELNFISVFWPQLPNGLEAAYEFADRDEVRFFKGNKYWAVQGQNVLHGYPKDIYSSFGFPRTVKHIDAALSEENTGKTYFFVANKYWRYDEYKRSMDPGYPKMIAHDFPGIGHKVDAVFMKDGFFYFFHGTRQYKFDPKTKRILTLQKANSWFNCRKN
# Procedure: as §1, §2, §3
# Sequence of recombinant human MMP-7 (P09237 95-267): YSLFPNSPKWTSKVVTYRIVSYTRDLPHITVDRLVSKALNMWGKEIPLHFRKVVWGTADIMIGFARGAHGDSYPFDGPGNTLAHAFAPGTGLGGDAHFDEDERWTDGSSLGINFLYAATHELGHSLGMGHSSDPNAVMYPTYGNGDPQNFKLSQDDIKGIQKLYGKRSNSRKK
structure (smiles),measurement,setting,value
Cc1cc(COc2ccc(Sc3ccoc3C3NC(=O)NC3=O)cc2)ccn1 (stereo not shown) [FC-4],IC50,recombinant human MMP-7,> 10 µM
same,"Left lung bronchial and arteriole damage score, fibrosis border",[1]; 10 mg/kg/d p.o. BID,4.2 ± 0.516
same,"Left lung bronchial and arteriole damage score, fibrosis core",[1]; 10 mg/kg/d p.o. BID,6.04 ± 0.19
same,Left lung fibrosis score (Ashcraft),[1]; 10 mg/kg/d p.o. BID,2.5 ± 0.2
same,Fibrosis score 1-3 (ratio of left lung fibrosis score),[1]; 10 mg/kg/d p.o. BID,82.0 ± 5.5
same,Fibrosis score 4-8 (ratio of left lung fibrosis score),[1]; 10 mg/kg/d p.o. BID,18.0 ± 5.5
same,Left lung fibrosis area,[1]; 10 mg/kg/d p.o. BID,75.1 ± 3.0
same,"Left lung bronchial and arteriole damage score, fibrosis border",[1]; 30 mg/kg/d p.o. BID,4.76 ± 0.16
same,"Left lung bronchial and arteriole damage score, fibrosis core",[1]; 30 mg/kg/d p.o. BID,6.18 ± 0.26
same,Left lung fibrosis score (Ashcraft),[1]; 30 mg/kg/d p.o. BID,2.6 ± 0.1
same,Fibrosis score 1-3 (ratio of left lung fibrosis score),[1]; 30 mg/kg/d p.o. BID,81.0 ± 4.8
same,Fibrosis score 4-8 (ratio of left lung fibrosis score),[1]; 30 mg/kg/d p.o. BID,19.0 ± 4.8
same,Left lung fibrosis area,[1]; 30 mg/kg/d p.o. BID,66.4 ± 2.9
same,"Left lung bronchial and arteriole damage score, fibrosis border",[1]; 100 mg/kg/d p.o. BID,4.18 ± 0.53
same,"Left lung bronchial and arteriole damage score, fibrosis core",[1]; 100 mg/kg/d p.o. BID,6.28 ± 0.21
same,Left lung fibrosis score (Ashcraft),[1]; 100 mg/kg/d p.o. BID,2.4 ± 0.2
same,Fibrosis score 1-3 (ratio of left lung fibrosis score),[1]; 100 mg/kg/d p.o. BID,84.0 ± 4.3
same,Fibrosis score 4-8 (ratio of left lung fibrosis score),[1]; 100 mg/kg/d p.o. BID,16.0 ± 4.3
same,Left lung fibrosis area,[1]; 100 mg/kg/d p.o. BID,70.5 ± 3.0
same,Body weight recovery,[1]; CPD treatment groups vs model group,no significant difference in body recovery
same,Share of Ashcraft score ≤ score 3,"[1]; all drug treatment groups, model over 60% ≥ score 4",~80%
same,MMP-12 expression in fibrosis core (IHC),[1]; clear dose dependent reduction (p>0.05 as printed),significant reduction
same,Collagen-I deposition in fibrosis core (IHC),"[1]; each dose, p<0.05",significant dosing dependent reduction
same,Collagen-IV deposition in fibrosis core (IHC),[1]; p<0.05,significant dose dependent reduction
same,Elastin expression in fibrosis core (IHC),[1]; p<0.05,significant reduction
same,TGF-β1 expression in fibrosis core (IHC),[1]; p<0.05,significant reduction
same,"Non invasive lung function (TV, MV, breath rate, Penh)","[1]; vs vehicle treated animals, all doses",did not show any significant changes
same,IC50,recombinant human MMP-1,> 10 µM
